Measurements: ChEMBL document CHEMBL3769303, “Discovery of membrane active benzimidazole quinolones-based topoisomerase inhibitors as potential DNA-binding antimicrobial agents” (Eur J Med Chem, 2016)
In brackets after ≈: the same amount, converted by molar mass.

Assays:
Format in all cases: functional
Candida albicans = test: Antifungal activity against Candida albicans ATCC 10231 after 24 hrs by micro broth dilution method; conditions: ATCC 10231, 24 h
Saccharomyces cerevisiae = test: Antifungal activity against Saccharomyces cerevisiae ATCC 9763 after 24 hrs by micro broth dilution method; conditions: ATCC 9763, 24 h
[1] = Antifungal activity against Candida mycoderma ATCC 9888 after 24 hrs by micro broth dilution method; conditions: Candida vini
Staphylococcus aureus [2] = test: Antibacterial activity against methicillin-resistant Staphylococcus aureus N315 by micro broth dilution method
Pseudomonas aeruginosa = test: Antibacterial activity against Pseudomonas aeruginosa ATCC 27853 by micro broth dilution method
Escherichia coli [3] = test: Antibacterial activity against Escherichia coli DH52 by micro broth dilution method
Bacillus spizizenii = test: Antibacterial activity against Bacillus subtilis ATCC 6633 by micro broth dilution method
Aspergillus flavus = test: Antifungal activity against Aspergillus flavus ATCC 204304 after 24 hrs by micro broth dilution method; conditions: ATCC 204304, 24 h
[4] = Antibacterial activity against Bacillus proteus ATCC 13315 by micro broth dilution method
Salmonella enterica = test: Antibacterial activity against Salmonella enterica ATCC 14028 by micro broth dilution method
Staphylococcus aureus [5] = test: Antibacterial activity against Staphylococcus aureus ATCC 25923 by micro broth dilution method
Cyberlindnera jadinii = test: Antifungal activity against Candida utilis ATCC 9950 after 24 hrs by micro broth dilution method; conditions: Williopsis jadinii, ATCC 9950, 24 h
Shigella dysenteriae = test: Antibacterial activity against Shigella dysenteriae by micro broth dilution method
Micrococcus luteus = test: Antibacterial activity against Micrococcus luteus ATCC 4698 by micro broth dilution method; conditions: NCTC 2665
Escherichia coli [6] = test: Antibacterial activity against Escherichia coli JM109 by micro broth dilution method

Structure (SMILES)	MIC80 (Candida albicans) [µg/mL]	MIC80 (Saccharomyces cerevisiae) [µg/mL]	MIC80 [1] [µg/mL]	MIC (Staphylococcus aureus [2]) [µg/mL]	MIC (Pseudomonas aeruginosa) [µg/mL]	MIC (Escherichia coli [3]) [µg/mL]	MIC (Bacillus spizizenii) [µg/mL]	MIC80 (Aspergillus flavus) [µg/mL]	MIC [4] [µg/mL]	MIC (Salmonella enterica) [µg/mL]	MIC (Staphylococcus aureus [5]) [µg/mL]	MIC80 (Cyberlindnera jadinii) [µg/mL]	MIC (Shigella dysenteriae) [µg/mL]	MIC (Micrococcus luteus) [µg/mL]	MIC (Escherichia coli [6]) [µg/mL]
CCCCCCCCCCCCn1c(CN2CCN(c3cc4c(cc3F)c(=O)c(C(=O)O)cn4CC)CC2)nc2ccccc21	128 (≈ 207 µM)	256 (≈ 414 µM)	128 (≈ 207 µM)	256 (≈ 414 µM)	256 (≈ 414 µM)	256 (≈ 414 µM)	128 (≈ 207 µM)	64 (≈ 104 µM)	256 (≈ 414 µM)	256 (≈ 414 µM)	128 (≈ 207 µM)	64 (≈ 104 µM)	256 (≈ 414 µM)	256 (≈ 414 µM)	512 (≈ 829 µM)
CCn1cc(C(=O)O)c(=O)c2cc(F)c(N3CCN(Cc4nc5ccc(Br)cc5[nH]4)CC3)cc21	64 (≈ 121 µM)	16 (≈ 30.3 µM)	32 (≈ 60.6 µM)	32 (≈ 60.6 µM)	2 (≈ 3.79 µM)	16 (≈ 30.3 µM)	8 (≈ 15.1 µM)	4 (≈ 7.57 µM)	4 (≈ 7.57 µM)	8 (≈ 15.1 µM)	64 (≈ 121 µM)	16 (≈ 30.3 µM)	16 (≈ 30.3 µM)	2 (≈ 3.79 µM)	16 (≈ 30.3 µM)
O=C(O)c1cn(C2CC2)c2cc(N3CCN(Cc4nc5ccccc5n4Cc4cccc(F)c4)CC3)c(F)cc2c1=O	64 (≈ 112 µM)	128 (≈ 225 µM)	64 (≈ 112 µM)	8 (≈ 14 µM)	16 (≈ 28.1 µM)	256 (≈ 449 µM)	32 (≈ 56.2 µM)	16 (≈ 28.1 µM)	128 (≈ 225 µM)	4 (≈ 7.02 µM)	256 (≈ 449 µM)	256 (≈ 449 µM)	256 (≈ 449 µM)	64 (≈ 112 µM)	256 (≈ 449 µM)
CCn1cc(C(=O)O)c(=O)c2cc(F)c(N3CCN(Cc4nc5ccccc5n4Cc4ccccc4Cl)CC3)cc21	4 (≈ 6.97 µM)	1 (≈ 1.74 µM)	0.5 (≈ 0.871 µM)	0.125 (≈ 0.218 µM)	1 (≈ 1.74 µM)	2 (≈ 3.48 µM)	16 (≈ 27.9 µM)	0.5 (≈ 0.871 µM)	4 (≈ 6.97 µM)	0.5 (≈ 0.871 µM)	8 (≈ 13.9 µM)	2 (≈ 3.48 µM)	16 (≈ 27.9 µM)	0.5 (≈ 0.871 µM)	16 (≈ 27.9 µM)
O=C(O)c1cn(C2CC2)c2cc(N3CCN(CCc4nc5ccccc5[nH]4)CC3)c(F)cc2c1=O	2 (≈ 4.21 µM)	1 (≈ 2.1 µM)	2 (≈ 4.21 µM)	4 (≈ 8.41 µM)	0.5 (≈ 1.05 µM)	4 (≈ 8.41 µM)	128 (≈ 269 µM)	1 (≈ 2.1 µM)	2 (≈ 4.21 µM)	1 (≈ 2.1 µM)	4 (≈ 8.41 µM)	4 (≈ 8.41 µM)	0.5 (≈ 1.05 µM)	1 (≈ 2.1 µM)	2 (≈ 4.21 µM)
CCCCCCCCn1c(CN2CCN(c3cc4c(cc3F)c(=O)c(C(=O)O)cn4CC)CC2)nc2ccccc21	8 (≈ 14.2 µM)	4 (≈ 7.12 µM)	2 (≈ 3.56 µM)	2 (≈ 3.56 µM)	2 (≈ 3.56 µM)	8 (≈ 14.2 µM)	32 (≈ 57 µM)	0.5 (≈ 0.89 µM)	4 (≈ 7.12 µM)	4 (≈ 7.12 µM)	32 (≈ 57 µM)	2 (≈ 3.56 µM)	16 (≈ 28.5 µM)	4 (≈ 7.12 µM)	32 (≈ 57 µM)
CCCCCCCCCCn1c(CN2CCN(c3cc4c(cc3F)c(=O)c(C(=O)O)cn4C3CC3)CC2)nc2ccccc21	64 (≈ 106 µM)	16 (≈ 26.6 µM)	64 (≈ 106 µM)	64 (≈ 106 µM)	32 (≈ 53.2 µM)	128 (≈ 213 µM)	64 (≈ 106 µM)	16 (≈ 26.6 µM)	32 (≈ 53.2 µM)	32 (≈ 53.2 µM)	64 (≈ 106 µM)	64 (≈ 106 µM)	64 (≈ 106 µM)	128 (≈ 213 µM)	128 (≈ 213 µM)
CCn1cc(C(=O)O)c(=O)c2cc(F)c(N3CCN(Cc4nc5ccc([N+](=O)[O-])cc5[nH]4)CC3)cc21	4 (≈ 8.09 µM)	16 (≈ 32.4 µM)	8 (≈ 16.2 µM)	8 (≈ 16.2 µM)	2 (≈ 4.04 µM)	8 (≈ 16.2 µM)	8 (≈ 16.2 µM)	2 (≈ 4.04 µM)	2 (≈ 4.04 µM)	4 (≈ 8.09 µM)	16 (≈ 32.4 µM)	8 (≈ 16.2 µM)	4 (≈ 8.09 µM)	1 (≈ 2.02 µM)	32 (≈ 64.7 µM)
O=C(O)c1cn(C2CC2)c2cc(N3CCN(Cc4nc5ccc(Br)cc5[nH]4)CC3)c(F)cc2c1=O	2 (≈ 3.7 µM)	4 (≈ 7.4 µM)	16 (≈ 29.6 µM)	4 (≈ 7.4 µM)	1 (≈ 1.85 µM)	8 (≈ 14.8 µM)	16 (≈ 29.6 µM)	2 (≈ 3.7 µM)	8 (≈ 14.8 µM)	4 (≈ 7.4 µM)	64 (≈ 118 µM)	4 (≈ 7.4 µM)	16 (≈ 29.6 µM)	16 (≈ 29.6 µM)	32 (≈ 59.2 µM)
CCCn1c(CN2CCN(c3cc4c(cc3F)c(=O)c(C(=O)O)cn4C3CC3)CC2)nc2ccccc21	0.25 (≈ 0.496 µM)	0.5 (≈ 0.993 µM)	0.5 (≈ 0.993 µM)	2 (≈ 3.97 µM)	1 (≈ 1.99 µM)	1 (≈ 1.99 µM)	32 (≈ 63.5 µM)	0.5 (≈ 0.993 µM)	32 (≈ 63.5 µM)	4 (≈ 7.94 µM)	32 (≈ 63.5 µM)	0.5 (≈ 0.993 µM)	4 (≈ 7.94 µM)	1 (≈ 1.99 µM)	4 (≈ 7.94 µM)
O=C(O)c1cn(C2CC2)c2cc(N3CCN(Cc4nc5ccc(Cl)cc5[nH]4)CC3)c(F)cc2c1=O	0.5 (≈ 1.01 µM)	0.25 (≈ 0.504 µM)	0.5 (≈ 1.01 µM)	0.5 (≈ 1.01 µM)	0.5 (≈ 1.01 µM)	0.5 (≈ 1.01 µM)	0.5 (≈ 1.01 µM)	0.5 (≈ 1.01 µM)	0.5 (≈ 1.01 µM)	0.5 (≈ 1.01 µM)	0.5 (≈ 1.01 µM)	0.5 (≈ 1.01 µM)	0.5 (≈ 1.01 µM)	0.25 (≈ 0.504 µM)	0.5 (≈ 1.01 µM)
CCn1cc(C(=O)O)c(=O)c2cc(F)c(N3CCN(CNc4nc5ccccc5[nH]4)CC3)cc21	2 (≈ 4.31 µM)	8 (≈ 17.2 µM)	1 (≈ 2.15 µM)	0.5 (≈ 1.08 µM)	1 (≈ 2.15 µM)	1 (≈ 2.15 µM)	8 (≈ 17.2 µM)	4 (≈ 8.61 µM)	8 (≈ 17.2 µM)	2 (≈ 4.31 µM)	2 (≈ 4.31 µM)	1 (≈ 2.15 µM)	0.5 (≈ 1.08 µM)	4 (≈ 8.61 µM)	16 (≈ 34.4 µM)
CCCCCCCCCCCCCCCCCCn1c(CN2CCN(c3cc4c(cc3F)c(=O)c(C(=O)O)cn4CC)CC2)nc2ccccc21	128 (≈ 182 µM)	128 (≈ 182 µM)	64 (≈ 91.2 µM)	128 (≈ 182 µM)	256 (≈ 365 µM)	256 (≈ 365 µM)	128 (≈ 182 µM)	64 (≈ 91.2 µM)	256 (≈ 365 µM)	256 (≈ 365 µM)	256 (≈ 365 µM)	64 (≈ 91.2 µM)	256 (≈ 365 µM)	128 (≈ 182 µM)	256 (≈ 365 µM)
CCn1cc(C(=O)O)c(=O)c2cc(F)c(N3CCN(CCc4nc5ccccc5[nH]4)CC3)cc21	64 (≈ 138 µM)	64 (≈ 138 µM)	64 (≈ 138 µM)	16 (≈ 34.5 µM)	32 (≈ 69 µM)	32 (≈ 69 µM)	2 (≈ 4.31 µM)	32 (≈ 69 µM)	16 (≈ 34.5 µM)	32 (≈ 69 µM)	64 (≈ 138 µM)	32 (≈ 69 µM)	128 (≈ 276 µM)	64 (≈ 138 µM)	32 (≈ 69 µM)
